From the NIST ThermoML archive (doi:10.1021/acs.jced.5b00806)

Experiments:
[1] = Liquid; for mass density: 101.33 kPa, Pycnometric method; for vapor or sublimation pressure: Langmuir
[2] = wn = mass fraction of the nth substance listed; conditions: 98 kPa, Liquid, Capillary tube (Ostwald / Ubbelohde) method
[3] = xn = mol fraction of the nth substance listed; conditions: 98 kPa, Liquid, magnetic suspension balance, x2 = 0.55

COP(=O)([O-])OC.Cn1cc[n+](C)c1 [1,3-dimethylimidazolium dimethylphosphate]
[1]
Conditions	mass density [kg/m3]
293.2 K	1260
303.2 K	1253
313.2 K	1246
323.2 K	1239
333.2 K	1232
343.2 K	1225
353.2 K	1218
363.2 K	1211

COP(=O)([O-])OC.Cn1cc[n+](C)c1 [1,3-dimethylimidazolium dimethylphosphate] + O
kinematic viscosity [m2/s], [2]
Conditions	w2 = 0.0031	w2 = 0.0085	w2 = 0.019	w2 = 0.0237	w2 = 0.0341	w2 = 0.0493	w2 = 0.0587	w2 = 0.0655
303.2 K	0.000137	0.000128	0.000114	0.000107	9.53e-05	7.95e-05	7.22e-05	6.73e-05
313.2 K	7.79e-05	7.35e-05	6.62e-05	6.27e-05	5.63e-05	4.77e-05	4.37e-05	4.09e-05
323.2 K	4.84e-05	4.59e-05	4.18e-05	3.98e-05	3.6e-05	3.09e-05	2.85e-05	2.68e-05
333.2 K	3.22e-05	3.07e-05	2.81e-05	2.69e-05	2.45e-05	2.13e-05	1.97e-05	1.86e-05
343.2 K	2.27e-05	2.17e-05	2e-05	1.92e-05	1.75e-05	1.53e-05	1.43e-05	1.35e-05
353.2 K	1.67e-05	1.6e-05	1.48e-05	1.42e-05	1.31e-05	1.15e-05	1.07e-05	1.02e-05
363.2 K	1.27e-05	1.22e-05	1.17e-05	1.09e-05	1.01e-05	8.9e-06	8.5e-06	8e-06

CCCCn1cc[n+](C)c1.F[B-](F)(F)F [1-butyl-3-methylimidazolium tetrafluoroborate]
[1]
Conditions	vapor or sublimation pressure [kPa]
396.3 K	7.2e-10
403.7 K	9.9e-10
412.1 K	2.3e-09
413.6 K	1.8e-09
415.4 K	2.8e-09
421.6 K	4.3e-09
424.9 K	6.3e-09
437.3 K	1.9e-08
437.6 K	1.5e-08
446.4 K	3.7e-08
447.3 K	4e-08
447.7 K	3.9e-08
457.2 K	8.3e-08
457.5 K	8.7e-08
464.7 K	1.5e-07
465 K	1.7e-07
465.5 K	1.6e-07

CCCCn1cc[n+](C)c1.F[B-](F)(F)F [1-butyl-3-methylimidazolium tetrafluoroborate] + O
kinematic viscosity [m2/s], [2]
Conditions	w2 = 0.0033	w2 = 0.0097	w2 = 0.0181	w2 = 0.0258	w2 = 0.0345	w2 = 0.0488	w2 = 0.0552	w2 = 0.066
303.2 K	5.78e-05	4.53e-05	3.44e-05	2.89e-05	2.26e-05	1.64e-05	1.52e-05	1.39e-05
313.2 K	3.76e-05	3.02e-05	2.37e-05	2.02e-05	1.62e-05	1.2e-05	1.12e-05	1.02e-05
323.2 K	2.59e-05	2.14e-05	1.73e-05	1.48e-05	1.22e-05	9.2e-06	8.6e-06	7.9e-06
333.2 K	1.86e-05	1.54e-05	1.28e-05	1.13e-05	9.4e-06	7.2e-06	6.8e-06	6.2e-06
343.2 K	1.39e-05	1.21e-05	1e-05	8.8e-06	7.5e-06	5.9e-06	5.5e-06	5.1e-06
353.2 K	1.08e-05	9.8e-06	8e-06	7.2e-06	6.2e-06	4.9e-06	4.6e-06	4.2e-06
363.2 K	8.6e-06	7.7e-06	6.5e-06	5.8e-06	5.1e-06	4.1e-06	3.9e-06	3.6e-06

CCOCCOCCOS(=O)(=O)[O-].CCn1cc[n+](C)c1 [1-ethyl-3-methylimidazolium 2-(2-ethoxyethoxy)ethylsulfate]
[1]
Conditions	mass density [kg/m3]	vapor or sublimation pressure [kPa]
293.2 K	1215	–
303.2 K	1207	–
313.2 K	1200	–
323.2 K	1193	–
333.2 K	1185	–
343.2 K	1178	–
353.2 K	1170	–
363.2 K	1164	–
419.7 K	–	3.4e-09
429 K	–	3.8e-09
430.1 K	–	5.6e-09
430.7 K	–	4.9e-09
436.4 K	–	1.3e-08
438.3 K	–	8.7e-09
438.4 K	–	1.1e-08
438.5 K	–	1.1e-08
440.2 K	–	1.4e-08
445.7 K	–	2.6e-08
445.8 K	–	2.5e-08
448.1 K	–	2.1e-08

CCOCCOCCOS(=O)(=O)[O-].CCn1cc[n+](C)c1 [1-ethyl-3-methylimidazolium 2-(2-ethoxyethoxy)ethylsulfate] + O
kinematic viscosity [m2/s], [2]
Conditions	w2 = 0.0019	w2 = 0.0085	w2 = 0.0195	w2 = 0.0251	w2 = 0.0353	w2 = 0.0495	w2 = 0.0569	w2 = 0.0663
303.2 K	0.000128	0.000103	7.64e-05	6.69e-05	5.26e-05	4.17e-05	3.84e-05	3.34e-05
313.2 K	7.46e-05	6.17e-05	4.74e-05	4.22e-05	3.38e-05	2.73e-05	2.52e-05	2.24e-05
323.2 K	4.76e-05	4.02e-05	3.17e-05	2.83e-05	2.31e-05	1.92e-05	1.76e-05	1.58e-05
333.2 K	3.23e-05	2.78e-05	2.23e-05	2.02e-05	1.67e-05	1.41e-05	1.29e-05	1.18e-05
343.2 K	2.32e-05	2.02e-05	1.65e-05	1.51e-05	1.26e-05	1.08e-05	9.8e-06	9.1e-06
353.2 K	1.81e-05	1.53e-05	1.26e-05	1.17e-05	9.9e-06	8.5e-06	7.8e-06	7.3e-06
363.2 K	1.34e-05	1.16e-05	1e-05	9.3e-06	7.9e-06	6.9e-06	6.3e-06	5.9e-06

CCOS(=O)(=O)[O-].CCn1cc[n+](C)c1 [1-ethyl-3-methylimidazolium ethyl sulfate] + O
kinematic viscosity [m2/s], [2]
Conditions	w2 = 0.0038	w2 = 0.009	w2 = 0.0164	w2 = 0.0239	w2 = 0.0359	w2 = 0.0483	w2 = 0.0563	w2 = 0.066
303.2 K	5.5e-05	5.06e-05	4.43e-05	4.03e-05	3.57e-05	3.26e-05	3.13e-05	2.99e-05
313.2 K	3.74e-05	3.56e-05	3.11e-05	2.86e-05	2.51e-05	2.3e-05	2.21e-05	2.11e-05
323.2 K	2.69e-05	2.63e-05	2.34e-05	2.17e-05	1.99e-05	1.69e-05	1.63e-05	1.55e-05
333.2 K	2.01e-05	1.9e-05	1.8e-05	1.67e-05	1.52e-05	1.31e-05	1.24e-05	1.18e-05
343.2 K	1.54e-05	1.49e-05	1.41e-05	1.35e-05	1.21e-05	1.05e-05	9.8e-06	9.3e-06
353.2 K	1.21e-05	1.17e-05	1.13e-05	1.11e-05	1.01e-05	9e-06	8.1e-06	7.6e-06
363.2 K	9.8e-06	9.4e-06	9.1e-06	8.8e-06	8.4e-06	8e-06	7e-06	6.5e-06

CCn1cc[n+](C)c1.CS(=O)(=O)[O-] [1-ethyl-3-methylimidazolium methanesulfonate]
[1]
Conditions	mass density [kg/m3]
293.2 K	1244
303.2 K	1237
313.2 K	1230
323.2 K	1223
333.2 K	1217
343.2 K	1212
353.2 K	1205
363.2 K	1198

CCn1cc[n+](C)c1.CS(=O)(=O)[O-] [1-ethyl-3-methylimidazolium methanesulfonate] + O
kinematic viscosity [m2/s], [2]
Conditions	w2 = 0.0024	w2 = 0.0028	w2 = 0.01	w2 = 0.0191	w2 = 0.0254	w2 = 0.0323	w2 = 0.0358	w2 = 0.047	w2 = 0.0589	w2 = 0.0615
303.2 K	9.34e-05	9.45e-05	7.58e-05	6.2e-05	5.53e-05	4.69e-05	4.51e-05	3.69e-05	3.06e-05	2.95e-05
313.2 K	5.57e-05	5.64e-05	4.66e-05	3.91e-05	3.5e-05	3.06e-05	2.96e-05	2.48e-05	2.09e-05	2.02e-05
323.2 K	3.74e-05	3.65e-05	3.23e-05	2.65e-05	2.39e-05	2.1e-05	2.09e-05	1.77e-05	1.49e-05	1.46e-05
333.2 K	2.57e-05	–	2.26e-05	–	1.76e-05	–	1.53e-05	1.31e-05	–	1.11e-05
343.2 K	1.86e-05	–	1.66e-05	–	1.32e-05	–	1.16e-05	1.01e-05	–	8.5e-06
353.2 K	1.39e-05	–	1.24e-05	–	1.02e-05	–	9.1e-06	8e-06	–	6.8e-06
363.2 K	1.09e-05	–	9.7e-06	–	8.1e-06	–	7.3e-06	6.5e-06	–	5.6e-06

[3]
Conditions	binary diffusion coefficient [m2/s]
303.2 K	2.1e-10
313.2 K	3.1e-10
333.2 K	5.35e-10
353.2 K	8.3e-10
373.2 K	1.17e-09
